From patent US8420657B2 (Novartis AG, priority 2008, dated 2013) come the findings set out here.

The structures appear in SMILES notation.

T1 sequence (O60674 808-1132): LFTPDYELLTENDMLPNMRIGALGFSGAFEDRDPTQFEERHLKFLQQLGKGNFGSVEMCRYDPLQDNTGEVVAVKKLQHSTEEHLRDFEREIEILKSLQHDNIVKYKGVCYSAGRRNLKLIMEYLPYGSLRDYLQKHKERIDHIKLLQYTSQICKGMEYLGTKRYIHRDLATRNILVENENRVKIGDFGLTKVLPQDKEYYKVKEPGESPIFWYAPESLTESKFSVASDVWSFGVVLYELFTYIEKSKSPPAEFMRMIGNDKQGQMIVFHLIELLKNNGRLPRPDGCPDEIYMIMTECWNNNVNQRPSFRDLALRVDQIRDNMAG

This assay has as its target T1, GST-JAK2(808-1132) (Homo sapiens, UniProt O60674).
T1 construct: GST-JAK2(808-1132); purchased Invitrogen (Carlsbad, USA) #4288
Description: JAK2 kinase assay (Caliper mobility shift, LabChip 3000). It is filed as biochemical. In short, it runs like this: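 Eight-point compound series (final 10–0.003 μM) tested on purchased GST-JAK2 kinase domain (808-1132). Peptide FITC-JAK3tide plus ATP reacted 60 min, 30 °C, then quenched with EDTA; turnover from charge-based separation of substrate and product.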
As usually defined, the IC50 is the concentration needed to halve the response being measured. Take `Fc1cc(-n2ccc3cnc(Nc4cccc(CN5CCOCC5)c4)nc32)cc(F)c1CN1CCOCC1` [Example 198, [7-(3,5-Difluoro-4-morpholin-4-ylmethyl-phenyl)-7H-pyrrolo[2,3-d]pyrimidin-2-yl]-(3-morpholin-4-ylmethyl-phenyl)-amine]: the IC50 is less than 3 nM.

Regarding `Cc1ccc(Nc2ncc3ccn(-c4ccc(C(=O)N5CCOCC5)c(F)c4)c3n2)cc1CN1C[C@H](C)NC[C@H]1C` (racemic) [Example 379, (4-{2-[3-((2R,5S)-2,5-Dimethyl-piperazin-1-ylmethyl)-4-methyl-phenylamino]-pyrrolo[2,3-d]pyrimidin-7-yl}-2-fluoro-phenyl)-morpholin-4-yl-methanone], the IC50 amounted to 11 nM.

With `Cc1ccc(Nc2ncc3ccn(-c4cc(F)c(CN5CCOCC5)c(F)c4)c3n2)cc1` [Example 325, [7-(3,5-Difluoro-4-morpholin-4-ylmethyl-phenyl)-7H-pyrrolo[2,3-d]pyrimidin-2-yl]-p-tolyl-amine], the IC50 was determined as 25 nM.

Turning to `Fc1cc(-n2ccc3cnc(Nc4ccncc4)nc32)cc(F)c1CN1CCOCC1` [Example 211, [7-(3,5-Difluoro-4-morpholin-4-ylmethyl-phenyl)-7H-pyrrolo[2,3-d]pyrimidin-2-yl]-pyridin-4-yl-amine], the IC50 amounted to 5.9 nM.

Turning to `Cc1ccc(Nc2ncc3ccn(-c4ccc(C(=O)N5CCOCC5)c(F)c4)c3n2)cc1CN1CCOCC1` [Example 327, {2-Fluoro-4-[2-(4-methyl-3-morpholin-4-ylmethyl-phenylamino)-pyrrolo[2,3-d]pyrimidin-7-yl]-phenyl}-morpholin-4-yl-methanone], the IC50 is less than 3 nM.

`O=C(c1ccc(-n2ccc3cnc(Nc4ccc(C(F)(F)F)nc4)nc32)cc1)N1CCOCC1` [Example 236, Morpholin-4-yl-{4-[2-(6-trifluoromethyl-pyridin-3-ylamino)-pyrrolo[2,3-d]pyrimidin-7-yl]-phenyl}-methanone]: the IC50 was determined as 46 nM.

For `Cc1cnn(Cc2cc(Nc3ncc4ccn(-c5cc(F)c(CN6CCOCC6)c(F)c5)c4n3)ccc2C)c1` [Example 481, [7-(3,5-Difluoro-4-morpholin-4-ylmethyl-phenyl)-7H-pyrrolo[2,3-d]pyrimidin-2-yl]-[4-methyl-3-(4-methyl-pyrazol-1-ylmethyl)-phenyl]-amine], the IC50 worked out at 5.1 nM.

With `CC(=O)N1CCN(Cc2ccc(Nc3ncc4ccn(-c5cc(F)c(CN6CCOCC6)c(F)c5)c4n3)cc2)CC1` [Example 318, 1-(4-{4-[7-(3,5-Difluoro-4-morpholin-4-ylmethyl-phenyl)-7H-pyrrolo[2,3-d]pyrimidin-2-ylamino]-benzyl}-piperazin-1-yl)-ethanone], the IC50 was less than 3 nM.

In the case of `CC(O)c1ccc(-n2ccc3cnc(Nc4ccc(N5CCN(C)CC5)nc4)nc32)cc1` (centres unmarked) [Example 279, 1-(4-{2-[6-(4-Methyl-piperazin-1-yl)-pyridin-3-ylamino]-pyrrolo[2,3-d]pyrimidin-7-yl}-phenyl)-ethanol], the IC50 came to 4 nM.

Regarding `Cc1ccc(Nc2ncc3ccn(-c4cc(F)c(CN5CCOCC5)c(F)c4)c3n2)cc1CN1CCC2(CCN(C)C2)C1` (centres unmarked) [Example 450, [7-(3,5-Difluoro-4-morpholin-4-ylmethyl-phenyl)-7H-pyrrolo[2,3-d]pyrimidin-2-yl]-[4-methyl-3-(7-methyl-2,7-diaza-spiro[4.4]non-2-ylmethyl)-phenyl]-amine], the IC50 was no more than 3 nM.

Consider `Cc1cc(Nc2ncc3ccn(-c4cc(F)c(CN5CCOCC5)c(F)c4)c3n2)ccc1CN1C[C@@H](C)N[C@@H](C)C1` [Example 461, [7-(3,5-Difluoro-4-morpholin-4-ylmethyl-phenyl)-7H-pyrrolo[2,3-d]pyrimidin-2-yl]-[4-(cis-3,5-dimethyl-piperazin-1-ylmethyl)-3-methyl-phenyl]-amine], for which the half-inhibitory concentration (IC50) was no more than 3 nM.

As to `CCN1CCN(Cc2ccc(Nc3ncc4ccn(-c5cc(F)c(CN6CCOCC6)c(F)c5)c4n3)nc2)CC1` [Example 316, [7-(3,5-Difluoro-4-morpholin-4-ylmethyl-phenyl)-7H-pyrrolo[2,3-d]pyrimidin-2-yl]-[5-(4-ethyl-piperazin-1-ylmethyl)-pyridin-2-yl]-amine], the IC50 stood at 73 nM.

As to `Cc1ccc(Nc2ncc3ccn(-c4cc(F)c(CN5CCNC(=O)C5)c(F)c4)c3n2)cc1CN1CCOCC1` [Example 344, 4-{2,6-Difluoro-4-[2-(4-methyl-3-morpholin-4-ylmethyl-phenylamino)-pyrrolo[2,3-d]pyrimidin-7-yl]-benzyl}-piperazin-2-one], the IC50 is no more than 3 nM.

Consider `Cc1ccc(Nc2ncc3ccn(-c4ccc(C(=O)N5CCOCC5)c(F)c4)c3n2)cc1CN1CCN(C)CC1` [Example 326, (2-Fluoro-4-{2-[4-methyl-3-(4-methyl-piperazin-1-ylmethyl)-phenylamino]-pyrrolo[2,3-d]pyrimidin-7-yl}-phenyl)-morpholin-4-yl-methanone], for which the IC50 was less than 3 nM.
